Results on one compound are retold here after patent US20210260051A1, “COMBINATION OF EZH2 INHIBITOR AND CHECKPOINT THERAPY FOR THE TREATMENT OF CANCER” (Board of Regents, The University of Texas System, priority 2018, published 2021).

Series [1] deals with Nalm-6 target tumor cells. Briefly: T cell cytotoxicity assay. Type of series: cell-based, human. The following applies: in vitro. As for the experimental part:
T cell cytotoxicity assay was carried out using activated effector T cells (isolated with EasySep Human Naïve CD4^+ T Cell Isolation Kit and EasySep Human CD8^+ T Cell Enrichment Kit; STEMCELL Technologies). Purified naïve CD4 and total CD8 T cells were pre-activated with plate-bound anti-CD3/soluble anti-CD28 for 6 days in the presence or absence of CPI-1205. Activated T cells were then washed and challenged with Nalm-6 target tumor cells, then labeled with CellTrace violet to enable their subsequent discrimination from effector cells. The T cell:tumor cell co-cultures were conducted at different effector:target (E:T) ratios, in the presence of the blinatumomab antibody (10 ng/ml) and CPI-1205 for 20 hours as previously described (3). Target cell death was determined by summing the percentage of apoptotic (Annexin V^+) and dead or dying (7AAD+) target (CellTrace violet^+) cells after overnight culture.

Series [2] has as its system inducible regulatory T cells. Briefly: Luminex-based cytokine analysis of iTreg culture supernatant. Type of series: cell-based, mouse. Conditions: iTregs differentiated with vs without CPI-1205; FIG. 5C. An excerpt:
FIGS. 5A-5C: Naïve T cells from FoxP3enhanced green fluorescent protein (eGFP) C57BL/6 mice that were differentiated into iTregs in the presence or absence of CPI-1205. GFP^+FoxP3^+ regulatory T cells were subsequently used for RNA sequencing analysis. (FIG. 5A) Ingenuity Pathway Analysis of RNA sequencing data of regulatory T cells differentiated in the presence of DMSO or CPI-1205. (FIG. 5B) Differentially expressed genes (DEGs) seen following differentiation of inducible regulatory T cells in presence of CPI-1205 or DMSO. (FIG. 5C) Luminex-based cytokine analysis of culture supernatant from inducible regulatory T cells following differentiation with CPI-1205 or DMSO. 2 tailed student t test was used to determine significance; NS, not significant. **p<0.01.
To understand CPI-1205-mediated molecular changes underlying the loss of suppressive activity of regulatory T cells, naïve murine T cells (CD4^+CD25^low CD44^low CD62^hi) from FoxP3-enhanced green fluorescent protein (eGFP) C57BL/6 mice were differentiated into iTregs in the presence or absence of CPI-1205. Purified GFP^+FoxP3^+ regulatory T cells were subsequently used for RNA sequencing analysis. […] The cytokine levels were subsequently examined in the culture supernatant of the iTregs that were differentiated with and without CPI-1205. […]

The conditions of series [3]: patients, continuous daily dosing; cited from earlier work.

With `COc1cc(C)[nH]c(=O)c1CNC(=O)c1c(C)n([C@H](C)C2CCN(CC(F)(F)F)CC2)c2ccccc12` [CPI-1205, N-[(4-methoxy-6-methyl-2-oxo-1H-pyridin-3-yl)methyl]-2-methyl-1-[(1R)-1-[1-(2,2,2-trifluoroethyl)piperidin-4-yl]ethyl]indole-3-carboxamide], in series [1], the “cytotoxicity of human effector T cells” value was “enhanced”. For the same compound, in series [2], the “pro-inflammatory cytokines in the culture supernatant” value is reported as “significantly increased”. For the same compound, in series [3], the dose-limiting toxicities result was “no dose-limiting toxicities” and the tolerability result is on record as “well tolerated”.
